Laboratory results reported in publication PMC12646458, “Structural characterization of the YbbAP-TesA ABC transporter identifies it as a lipid hydrolase complex that extracts hydrophobic compounds from the bacterial inner membrane” (PLOS Biology, 2025).
Changes are numbered by the printed parent chain. Values after ≈ are worked out from the molar mass of the structure shown.

Key:
[1] = system: T1, Escherichia coli C43(DE3); experiment: microbe, parasite or virus in culture; parameters: antibiotic susceptibility testing of E. coli strains, MIC, median of replicates; conditions: D=+IPTG +Kan, median MIC, empty pET28, IPTG and kanamycin present
T1 construct: C43(DE3) carrying empty pET28 vector
From the text: (§1) Supplementary file pbio.3003427.s003.docx: S3 Table Antibiotic susceptibility testing for TesA and YbbP knockout strains. (DOCX)

Escherichia coli BW25113 = system: T2, Escherichia coli BW25113; experiment: microbe, parasite or virus in culture; parameters: antibiotic susceptibility testing of E. coli strains, MIC, median of replicates; conditions: read-out: Median MIC
T2 construct: BW25113
From the text: as §1

PaTesA = biological target: T3, PaTesA (Pseudomonas aeruginosa, UniProt Q9HZY8); experiment: absorbance at […] nm; type: biochemical; conditions: purified tagged enzyme
T3 construct: gene tesA; purified, N-terminal tag

YbbAP-TesA = biological target: T4, YbbAP-TesA (Escherichia coli, UniProt P0ADA1); experiment: Michaelis-Menten, absorbance at […] nm; type: biochemical; conditions: PBS with 0.01% LMNG, 21 °C
T4 construct: co-expressed from pETDuet1-based plasmids in E. coli C43(DE3); His-tag on YbbA; complex in LMNG detergent; 2:1:1 YbbA:YbbP:TesA; Uncharacterized ABC transporter permease YbbP
T4 sequence (P0ADA1 27-208): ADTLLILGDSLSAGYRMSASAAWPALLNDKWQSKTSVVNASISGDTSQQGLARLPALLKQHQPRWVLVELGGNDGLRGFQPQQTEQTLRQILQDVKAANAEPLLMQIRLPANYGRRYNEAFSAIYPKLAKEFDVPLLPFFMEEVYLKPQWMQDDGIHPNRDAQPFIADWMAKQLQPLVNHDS
T4 sequence (P0A9T8 1-228 partner): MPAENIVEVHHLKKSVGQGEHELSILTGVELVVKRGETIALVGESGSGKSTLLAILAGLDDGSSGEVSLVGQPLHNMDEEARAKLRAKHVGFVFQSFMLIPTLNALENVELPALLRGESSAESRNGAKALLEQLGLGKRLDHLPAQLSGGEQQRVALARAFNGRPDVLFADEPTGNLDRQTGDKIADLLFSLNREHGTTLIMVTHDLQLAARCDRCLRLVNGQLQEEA
T4 sequence (P77504 1-804 partner): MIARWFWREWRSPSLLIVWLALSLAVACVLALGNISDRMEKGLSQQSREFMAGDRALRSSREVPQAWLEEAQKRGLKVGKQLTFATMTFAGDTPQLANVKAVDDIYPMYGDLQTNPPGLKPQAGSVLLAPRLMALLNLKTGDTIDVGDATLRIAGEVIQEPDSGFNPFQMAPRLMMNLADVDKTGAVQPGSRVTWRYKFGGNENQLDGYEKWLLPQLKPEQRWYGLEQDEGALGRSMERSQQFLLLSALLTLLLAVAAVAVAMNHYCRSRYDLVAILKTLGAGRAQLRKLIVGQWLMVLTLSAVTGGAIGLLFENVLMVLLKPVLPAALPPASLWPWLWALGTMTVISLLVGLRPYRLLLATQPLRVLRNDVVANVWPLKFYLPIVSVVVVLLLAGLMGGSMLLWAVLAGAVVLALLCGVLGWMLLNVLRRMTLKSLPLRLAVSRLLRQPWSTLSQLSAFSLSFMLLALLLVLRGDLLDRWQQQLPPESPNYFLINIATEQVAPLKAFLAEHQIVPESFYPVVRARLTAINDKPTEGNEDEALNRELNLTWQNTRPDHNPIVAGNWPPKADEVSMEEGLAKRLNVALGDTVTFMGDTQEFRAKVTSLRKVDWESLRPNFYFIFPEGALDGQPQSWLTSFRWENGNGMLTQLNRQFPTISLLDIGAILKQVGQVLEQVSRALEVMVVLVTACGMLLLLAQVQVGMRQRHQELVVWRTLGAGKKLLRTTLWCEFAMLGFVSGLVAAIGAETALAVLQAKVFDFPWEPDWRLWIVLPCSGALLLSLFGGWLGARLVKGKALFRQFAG

TesA [2] = biological target: T5, TesA (Escherichia coli, UniProt P0ADA1); experiment: absorbance assay; type: biochemical; parameters: isolated TesA; for the cell assays expressed from a pET vector in E. coli delta-tesA (Keio) cells; conditions: isolated TesA
T5 sequence (P0ADA1 27-208): T4 sequence (P0ADA1 27-208)

TesA [3] = biological target: T5, TesA; experiment: ester hydrolysis by live cells expressing TesA, absorbance at […] nm; type: cell-based; parameters: for the cell assays expressed from a pET vector in E. coli delta-tesA (Keio) cells; conditions: PBS; live E. coli delta-tesA cells; 2.5 mM substrate after mixing
YbbP = biological target: T6, YbbP (E. coli, UniProt P77504 1-804); experiment: cryo-EM structure; YbbAP-TesA(Ser36Ala) complex with AMP-PNP, co-expressed and co-purified (Ni-affinity, SEC), 0.01% LMNG; 4.6 Å; conditions: both partners purified
T6 construct: YbbP, transmembrane component (10 transmembrane helices, two periplasmic domains) of the YbbAP Type VII ABC transporter, Escherichia coli; source: size exclusion chromatography for structure determination), in 0.01% LMNG
T6 sequence: T4 sequence (P77504 1-804 partner)

T3 sequence (Q9HZY8 22-201): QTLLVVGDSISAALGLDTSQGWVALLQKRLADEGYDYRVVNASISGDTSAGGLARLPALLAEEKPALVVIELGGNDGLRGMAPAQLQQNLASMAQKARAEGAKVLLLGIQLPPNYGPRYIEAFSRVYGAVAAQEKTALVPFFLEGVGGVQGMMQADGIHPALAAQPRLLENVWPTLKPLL

Work on `CC1(C)S[C@@H]2[C@H](NC(=O)[C@H](N)c3ccccc3)C(=O)N2[C@H]1C(=O)O` [Ampicillin] yielded an MIC [1] of 8 µg/mL (≈ 22.9 µM).

With `CC(=O)OCC1=C(C(=O)O)N2C(=O)[C@@H](NC(=O)Cc3cccs3)[C@H]2SC1` [Cephalothin] the MIC (Escherichia coli BW25113) was 12 µg/mL (≈ 30.3 µM).

Molecule `CC1(C)S[C@@H]2[C@H](NC(=O)Cc3ccccc3)C(=O)N2[C@H]1C(=O)O` [Penicillin G] has an MIC (Escherichia coli BW25113) of 32 µg/mL (≈ 95.7 µM).

In the case of `O=C(Cc1cccs1)N[C@@H]1C(=O)N2C(C(=O)O)=C(/C=C/c3ccc([N+](=O)[O-])cc3[N+](=O)[O-])CS[C@H]12` [nitrocefin], the “absorbance at 488 nm” value (PaTesA) is reported as “We also separately confirmed that the P. aeruginosa TesA can hydrolyze nitrocefin”, the Km (YbbAP-TesA) is reported as under 10 nM and the absorbance assay (TesA [2]) is reported as “YbbAP-TesA (and isolated TesA) can hydrolyze nitrocefin”.

`CCCC(=O)Oc1ccc([N+](=O)[O-])cc1` [p-nitrophenyl butyrate] was tested, and the relative rate (TesA [3]) was “expressing either TesA (or YbbAP-TesA) from a plasmid show robust hydrolytic activity”.

B1: YbbA (natural protein, E. coli)
chain: T4 sequence (P0A9T8 1-228 partner)
notes: also called ABC domain; source: size exclusion chromatography for structure determination), in 0.01% LMNG
In the case of B1, the “stoichiometry N” value (YbbP) is reported as 2.

B2: TesA Ser36Ala (enzyme, E. coli, UniProt P0ADA1 27-208, looked up)
chain: T4 sequence (P0ADA1 27-208) with S10A
notes: TesA, periplasmic multifunctional esterase/thioesterase/lysophospholipase, Escherichia coli, with the catalytic site mutation Ser36Ala; printed residue numbers fit the precursor with its signal peptide; also called TesA catalytic site mutation (Ser36Ala); source: size exclusion chromatography for structure determination), in 0.01% LMNG
B2 was tested, and the “stoichiometry N” value (YbbP) was 1.
